We go through eleven compounds from US20160045482A1, “UREIDO-PYRAZOLE DERIVATIVES” (Respivert Limited, priority 2010, published 2016).

For assay [1], the system named is HRV16. In words: HRV-16 infection, assessment of virus load (TCID50) in MRC5 cells. The conditions noted are these: HRV16 0.1 MOI, 3 days. The class given is cell-based, human rhinovirus 16. As for the experimental part: Human rhinovirus RV16 (HRV16) was obtained from the American Type Culture Collection (Manassas, Va.). Viral stocks were generated by infecting Hela cells with HRV until 80% of the cells were cytopathic. MRC5 cells (human lung fibroblast, ATCC) were infected at 0.1 MOI (multiplicity of infection of 0.1) of HRV16 and incubated for 1 hr at 33° C. with gentle shaking to stimulate adsorption. The cells were then washed with PBS, fresh media (DMEM-5% FCS) was added and the cells were incubated for a further 72 hr. Supernatant (20 μL) was collected and 10-fold serial dilutions were prepared with DMEM containing 1% FCS. All titrations were performed by infecting confluent Hela cell monolayers with serially diluted supernatant (10^−1-10^−5) and then the cytopathic effect at each dilution 3 days after infection assessed by visual inspection. The cells were then stained with Crystal Violet for confirmation. The amount of virus required to infect 50% of Hela cells was calculated in each treatment as TCID50 (50% tissue culture infectious dose, U(unit)/20 μL). Compounds were added 2 hr before HRV16 infection and 1 hr after infection when non-infected HRV was washed out.

The subject of a further assay is IRF-3. In words: HRV-16 induced activation of IRF-3 in BEAS2B cells. It is filed as cell-based, human. The following applies: after 2 hr, at 10 MOI. As for the experimental part:
(§1) The cells were then collected by scraping on ice and nuclear extracts were prepared using a nuclear protein extraction kit (ActiveMotif, […], Belgium). NFκB activity and IRF3 activity were then measured using the TransAMTM NFκB (p65) ELISA kit or the TransAMTM IRF3 ELISA kit.

In assay [2] the test system is HRV16. In words: Assessment of HRV16 induced CPE in MRC5. It is filed as cell-based, human rhinovirus 16. The following applies: MRC5 cells; for IC50: Rhinovirus A, 96 h, HRV16 MOI of 1, 4 days, read-out: HRV16-induced CPE IC50 Value. The procedure: The supernatants were aspirated and fresh media was added and the preparations were then incubated for 4 days. Where appropriate, cells were pre-incubated with the test compound or DMSO for 2 hr, and the compounds and DMSO added again after washout of the virus. Supernatants were aspirated and incubated with methylene blue solution (2% formaldehyde, 10% methanol and 0.175% Methylene Blue) for 2 hr at RT. After washing, 1% SDS was added to each well, and plates were shaken lightly for 1-2 hr prior to reading the absorbance at 660 nm. The percentage inhibition for each well was calculated. The IC50 value was calculated from the concentration-response curve generated from the serial dilutions of the test compound.

For the next assay, the system named is IL-8. In words: IL-8 release activated by human rhinovirus in BEAS2B cells. The class given is cell-based. The conditions noted are these: Homo sapiens, BEAS-2B; BEAS2B cells, MOI of 5, 72 hr; read-out: HRV16-induced IL-8 IC50 Value. The procedure:
BEAS2B cells were infected with rhinovirus at an MOI of 5 and incubated for 2 hr at 33° C. with gentle shaking to enhance adsorption. Test compounds were added 2 hr before HRV infection and 2 hr after infection when residual extracellular HRV was washed out. The cells were then washed with PBS, fresh media was added and the cells were incubated for a further 72 hr. The supernatant was collected for assay of IL-8 concentrations using the Duoset ELISA development kit (R&D Systems, Minneapolis, Minn.).

The next assay has as its system ICAM-1. In words: ICAM1 expression activated by human rhinovirus in BEAS2B cells (cell-based ELISA). The following applies: for IC50: Homo sapiens, BEAS-2B, HRV16 inoculation (2 hr infection), read-out: HRV16-induced ICAM1 IC50 Value. As for the experimental part:
BEAS2B cells were infected with rhinovirus at an MOI of 5 and incubated for 2 hr at 33° C. with gentle shaking to enhance adsorption. Test compounds were added 2 hr before HRV infection and 2 hr after infection when residual extracellular HRV was washed out. The cells were then washed with PBS, fresh media was added and the cells were incubated for a further 72 hr. The supernatant was collected for assay of IL-8 concentrations using the Duoset ELISA development kit (R&D Systems, Minneapolis, Minn.). […] After appropriate incubation, cells were fixed with 4% formaldehyde in PBS. After quenching endogenous peroxidase by adding 0.1% sodium azide and 1% hydrogen peroxide, wells were washed with buffer (0.05% Tween in PBS: PBS-Tween). After incubation with the blocking solution (5% milk in PBS-Tween for 1 hr), cells were incubated with anti-human ICAM-1 antibody in 5% BSA PBS-Tween (1:500) overnight. Wells were then washed with PBS-Tween and incubated with the secondary antibody (HRP-conjugated anti-rabbit IgG, Dako Ltd.).
(ELISA stands for enzyme-linked immunosorbent assay.)

A further assay has as its system NFκB. In words: HRV-16 induced activation of NFκB in BEAS2B cells. The class given is cell-based, human. The following applies: after 2 hr, at 10 MOI. The procedure:
as §1

The subject of the next assay is HRV16 mRNA. In words: Transcripts of HRV16 by PCR in MRC5 cellular extract. The class given is cell-based, human rhinovirus 16. The following applies: MRC5 cells, HRV16 0.1 MOI, 3 days. As for the experimental part: The MRC5 cells infected with virus (as described above) were used for viral RNA or mRNA detection. Total RNA extraction and reverse transcription were performed using TaqMan®Fast Cells-to-CT™ Kit (Ambion Inc. Austin Tex.). The gene transcript level of HRV16 (PrimerDesign Ltd, Southampton, UK), IFN (Applied Biosystems, Warrington, UK) and GAPDH, as a house-keeping gene (PrimerDesign Ltd, Southampton, UK) were quantified by real-time PCR using commercially available primers on a StepOnePlus™ RT-PCR system (Applied Biosystems, Warrington, UK). Variations in cDNA concentrations between different samples were corrected using the housekeeping gene, whereby the GAPDH concentration in each cDNA sample was calculated, and the cDNA diluted to contain equal amounts of GAPDH. Standard curves for GAPDH were generated by performing a dilution series of the untreated control cDNA. The relative amount of gene transcript present after different treatments was calculated and normalized by dividing the calculated value for the gene of interest by that of the house-keeping gene value.

In assay [3] the test system is HRV16. In words: HRV-16 infection, assessment of virus load (TCID50) in MRC5 cells. It is filed as cell-based, human rhinovirus 16. The following applies: pilot studies.
A further assay deals with rhinovirus. The conditions noted are these: Jefferson and Tyrrell 2007; cited from earlier work.
[4] abbreviates: listed as Fluticasone propionate.

Broadly, the IC50 is the midpoint of a concentration-inhibition curve.

As to `Cc1ccc(-n2nc(C(C)(C)C)cc2NC(=O)Nc2ccc(OCCN3CCOCC3)c3ccccc23)cc1` [BIRB-796], the “HRV-16 virus load (extracellular)” value in the assay on HRV16 [1] is listed as “No effect”. The “IRF-3 activation (HRV-16 induced)” value with IRF-3 is given as “tendency to inhibit”.
Take `Cc1ccc(-n2nc(C(C)(C)C)cc2NC(=O)Nc2ccc(Oc3ccnc(NC(=O)N4CCCC4)c3)c3ccccc23)cc1` [Example 14, N-(4-(4-(3-(3-tert-Butyl-1-p-tolyl-1H-pyrazol-5-yl)ureido)naphthalen-1-yloxy)pyridin-2-yl)pyrrolidine-1-carboxamide]: in the assay with HRV16 [2], the “HRV16-induced CPE (in words)” value is “inhibited HRV16-induced CPE in MRC5 cells in a concentration-dependent manner” and the half-maximal inhibitory concentration (IC50) came out at 3.3 nM.
For the compound `Cc1ccc(-n2nc(C(C)(C)C)cc2NC(=O)Nc2ccc(Oc3ccnc(NC(N)=O)c3)c3ccccc23)cc1` [Example 30, 4-(4-(3-(3-tert-Butyl-1-p-tolyl-1H-pyrazol-5-yl)ureido)naphthalen-1-yloxy)pyridin-2-ylurea], in the assay with HRV16 [2], the “HRV16-induced CPE (in words)” value is “inhibited HRV16-induced CPE in MRC5 cells in a concentration-dependent manner” and the half-maximal inhibitory concentration (IC50) amounted to 2.9 nM. In the assay with IL-8, the IC50 was 0.019 nM.
Consider `CNC(=O)Nc1cc(Oc2ccc(NC(=O)Nc3cc(C(C)(C)C)nn3-c3ccc(C)cc3)c3ccccc23)ccn1` [Example 37], for which the “HRV16-induced CPE (in words)” value with HRV16 [2] is on record as “inhibited HRV16-induced CPE in MRC5 cells in a concentration-dependent manner”. Also, the figures for the 50% inhibitory concentration (IC50) with HRV16 [2], in the assay with IL-8 and with ICAM-1 were 24 nM, 0.12 nM and 0.029 nM, respectively.
In the case of `Cc1ccc(-n2nc(C(C)(C)C)cc2NC(=O)Nc2ccc(Oc3ccnc(NC(=O)N4CCOCC4)c3)c3ccccc23)cc1` [Example 43, N-(4-(4-(3-(3-tert-Butyl-1-p-tolyl-1H-pyrazol-5-yl)ureido)naphthalen-1-yloxy)pyridin-2-yl)morpholine-4-carboxamide], in the assay on HRV16 [2], the “HRV16-induced CPE (in words)” value is given as “inhibited HRV16-induced CPE in MRC5 cells in a concentration-dependent manner” and the IC50 is 9.5 nM. The IC50 with IL-8 was 0.069 nM.
In the case of `Cc1ccc(-n2nc(C(C)(C)C)cc2NC(=O)Nc2ccc(Oc3ccnc(NC(=O)N4CCN(C)CC4)c3)c3ccccc23)cc1` [Example 44, N-(4-((4-(3-(3-(tert-Butyl)-1-(p-tolyl)-1H-pyrazol-5-yl)ureido)naphthalen-1-yl)oxy)pyridin-2-yl)-4-methylpiperazine-1-carboxamide], the “HRV16-induced CPE (in words)” value in the assay with HRV16 [2] is “inhibited HRV16-induced CPE in MRC5 cells in a concentration-dependent manner”. The concentration for half-maximal inhibition (IC50) with HRV16 [2] came to 16.3 nM; with IL-8, 0.041 nM; in the assay on ICAM-1, 0.069 nM.
For `Cc1ccc(-n2nc(C(C)(C)C)cc2NC(=O)Nc2ccc(Oc3ccnc(NC(=O)N(C)C)c3)c3ccccc23)cc1` [Example 45, 3-(4-((4-(3-(3-(tert-Butyl)-1-(p-tolyl)-1H-pyrazol-5-yl)ureido)naphthalen-1-yl)oxy)pyridin-2-yl)-1,1-dimethylurea], in that order: “inhibited HRV16-induced CPE in MRC5 cells in a concentration-dependent manner”, 9.4 nM, 0.041 nM and 0.098 nM.
Consider `Cc1ccc(-n2nc(C(C)(C)C)cc2NC(=O)Nc2ccc(Oc3ccnc(NC(=O)N4CC[C@@H](N(C)C)C4)c3)c3ccccc23)cc1` [Example 55, (R)-N-(4-(4-(3-(3-tert-Butyl-1-p-tolyl-1H-pyrazol-5-yl)ureido)naphthalen-1-yloxy)pyridin-2-yl)-3-(dimethylamino)pyrrolidine-1-carboxamide], for which, in the assay on HRV16 [2], the “HRV16-induced CPE (in words)” value is reported as “inhibited HRV16-induced CPE in MRC5 cells in a concentration-dependent manner” and the IC50 amounted to 14.3 nM.
Consider `COc1cc(Nc2ncc(F)c(Nc3ccc4c(n3)NC(=O)C(C)(C)O4)n2)cc(OC)c1OC` [Example R-406], for which the “NFκB activation (HRV-16 induced)” value in the assay with NFκB was “inhibited”.
Consider `CCC(=O)O[C@]1(C(=O)SCF)[C@H](C)C[C@H]2[C@@H]3C[C@H](F)C4=CC(=O)C=C[C@]4(C)[C@@]3(F)[C@@H](O)C[C@@]21C` [fluticasone propionate], for which the “ICAM-1 expression induced by HRV16 inoculation (in words)” value with ICAM-1 (2 hr infection) is on record as “much more modest”. Further, in the assay on ICAM-1 (results not shown), the “Concentrations at which concentration-dependent effects on ICAM-1 are apparent, relative to Reference Compound 2” value was 10,000 fold. The “HRV-16 virus load (extracellular)” value with HRV16 [1] is reported as “without effect”; with HRV16 [1] (setting [4]), “No effect”. Moreover, the “NFκB activation (HRV-16 induced)” value with NFκB is listed as “no clear effect”; in the assay on NFκB (setting [4]), “No effect”. For the same compound, the “IRF-3 activation (HRV-16 induced)” value with IRF-3 is on record as “tendency to inhibit”. In addition, in the assay with HRV16 mRNA, the “HRV16 mRNA detected in cellular extracts” value is “without effect”.
On to `Cc1cc(CCCOc2c(C)cc(-c3noc(C(F)(F)F)n3)cc2C)on1` [pleconaril], for which the “HRV-16 virus load (extracellular)” value in the assay with HRV16 [1] is listed as “clearly inhibits”. Further, in the assay with HRV16 mRNA, the “HRV16 mRNA detected in cellular extracts” value is listed as “clearly inhibits”. Also, in the assay with HRV16 [3], the “Effect of treatment time versus the point of inoculation with HRV16” value is recorded as “essentially only effective if the drug was administered prior to infection”. Further, the “Activity against rhinovirus infections in clinical development” value in the assay with rhinovirus is given as “active against rhinovirus infections”.
